Reference: patent US11505536B2, “Dihydroorotate dehydrogenase inhibitors” (Janssen Biotech, Inc., priority 2019, dated 2022)

Legend:
human DHODH = human DHODH (Homo sapiens (Human), UniProt Q02127); assay: DHODH Enzymatic Assay; assay type: biochemical; details: purified human DHODH, DCIP absorbance, end-point mode; read-out: hDHODH IC50
Protocol: The following assay is referred to herein as the “DHODH Enzymatic Assay.” To detect DHODH enzyme activities, dichloroindophenol (DCIP) is added as the final electron acceptor in the assay. DCIP can accept electrons from the reduced coenzyme Q generated in the assay, or from dihydroorotate (DHO) via FMN by binding presumably to the ubiquinone pocket. DCIP solutions are blue, with an intense absorbance around 600 nm, but becomes colorless upon reduction (J. Biol. Chem. (1986) 261, 11386). The assay buffer contained […], pH 7.5, 150 mM NaCl, 0.5 mM EDTA, and 0.1% Triton X-100 in MilliQ water. Substrate consisting of 20 mM DHO, 5 mM CoQ6, and 1 mM DCIP in assay buffer, initiates the reaction. The assay is run in end-point mode by quenching the reaction with the potent DHODH inhibitor brequinar. Absorbance measurements were obtained using the BMG Phera Star plate-reading spectrophotomer. Purified human DHODH was purchased from Proteros (cat. No. PR-0044). Chemicals were purchased from Sigma-Aldrich, Teknova, and Avanti Polar Lipids. Liquid handling was performed using Labcyte Echo and Formulatrix Tempest.

[1] = system: MOLM-13 cells (human acute myeloid leukemia cells); assay: MOLM-13 Cellular Assay; assay type: cell-based; details: Homo sapiens, MOLM-13, 72 h, 72 hours exposure, cell viability by CellTiter-Glo
Protocol: The following assay is referred to herein as the “MOLM-13 Cellular Assay.” MOLM-13 cells (human acute myeloid leukemia cells) were obtained from DSMZ and were maintained in RPMI 1640+Glutamax+25 mM HEPES (Invitrogen, catalog number 72400) supplemented with 10% heat inactivated fetal bovine serum (FBS; Invitrogen, catalog number 16140). The day prior to assay set-up, cells were pelleted, resuspended in fresh media, counted, and cells were plated at 0.4×10^6 cell/mL in a T150 flask. On the day of the assay, cells were pelleted, resuspend in fresh media, counted and seeded at 5,000 cells/well in white opaque 96-well tissue culture treated microplates (Perkin Elmer, catalog number 6005680). Cells were exposed to different concentrations of test compounds at 37° C., 5% CO2 for 72 hours immediately after seeding. Cell viability was acquired on a Perkin Elmer Envision 2104 multilabel reader using the CellTiter-Glo assay (Promega) according to the manufacturer's instructions.

Sequence of human DHODH (Q02127 whole entry): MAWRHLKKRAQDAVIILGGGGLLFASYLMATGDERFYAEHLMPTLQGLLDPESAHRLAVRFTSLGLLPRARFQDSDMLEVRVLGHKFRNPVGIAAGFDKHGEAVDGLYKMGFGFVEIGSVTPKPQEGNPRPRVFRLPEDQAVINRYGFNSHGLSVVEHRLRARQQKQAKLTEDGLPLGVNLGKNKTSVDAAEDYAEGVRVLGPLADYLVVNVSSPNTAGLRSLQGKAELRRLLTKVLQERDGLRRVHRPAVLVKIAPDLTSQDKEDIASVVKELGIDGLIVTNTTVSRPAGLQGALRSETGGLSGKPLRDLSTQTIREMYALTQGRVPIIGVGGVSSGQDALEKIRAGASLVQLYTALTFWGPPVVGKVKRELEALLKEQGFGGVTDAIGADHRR

IC50 (human DHODH) [nM]	IC50 [1] [nM]	SMILES
181	> 100	CCn1c(CO)nn(-c2cc3c(C(C)C)cn([C@H]4CCC[C@@H](OC)C4)c(=O)c3cc2F)c1=O (racemic) [Example 127, Racemic 6-(4-Ethyl-3-(hydroxymethyl)-5-oxo-4,5-dihydro-1H-1,2,4-triazol-1-yl)-7-fluoro-4-isopropyl-2-((cis)-3-methoxycyclohexyl)isoquinolin-1(2H)-one]
1.68	1	CCn1c(CO)nn(-c2cc3c(C(C)C)cn([C@@H]4CCCC[C@H]4C)c(=O)c3cc2F)c1=O (stereo in doubt) [Example 120, 6-(4-Ethyl-3-(hydroxymethyl)-5-oxo-4,5-dihydro-1H-1,2,4-triazol-1-yl)-7-fluoro-4-isopropyl-2-((1R*,2R*)-2-methylcyclohexyl)isoquinolin-1(2H)-one]
7.41	4	CCn1c(CO)nn(-c2cc3c(C(C)C)cn([C@H]4CCCC[C@@H]4C)c(=O)c3cc2F)c1=O (stereo in doubt) [Example 121, 6-(4-Ethyl-3-(hydroxymethyl)-5-oxo-4,5-dihydro-1H-1,2,4-triazol-1-yl)-7-fluoro-4-isopropyl-2-((1S*,2S*)-2-methylcyclohexyl)isoquinolin-1(2H)-one]
16.8	9	CCn1c(CO)nn(-c2cc3c(C(C)C)cn([C@@H]4CCC[C@H]4C)c(=O)c3cc2F)c1=O (stereo in doubt) [Example 123, 6-(4-Ethyl-3-(hydroxymethyl)-5-oxo-4,5-dihydro-1H-1,2,4-triazol-1-yl)-7-fluoro-4-isopropyl-2-((1R*,2R*)-2-methylcyclopentyl)isoquinolin-1(2H)-one]
1.36	0.9	CCn1c(CO)nn(-c2cc3c(C(C)C)cn([C@H]4CCC[C@@H]4C)c(=O)c3cc2F)c1=O (stereo in doubt) [Example 124, 6-(4-Ethyl-3-(hydroxymethyl)-5-oxo-4,5-dihydro-1H-1,2,4-triazol-1-yl)-7-fluoro-4-isopropyl-2-((1S*,2S*)-2-methylcyclopentyl)isoquinolin-1(2H)-one]
15.5	6	CCn1c(CO)nn(-c2cc3c(C(C)C)cn([C@@H]4CCC[C@@H]4C)c(=O)c3cc2F)c1=O (stereo in doubt) [Example 125, 6-(4-Ethyl-3-(hydroxymethyl)-5-oxo-4,5-dihydro-1H-1,2,4-triazol-1-yl)-7-fluoro-4-isopropyl-2((1R*,2S*)-2-methylcyclopentyl)isoquinolin-1(2H)-one]
1.32	1	CCn1c(CO)nn(-c2cc3c(C(C)C)cn([C@H]4CCC[C@H]4C)c(=O)c3cc2F)c1=O (stereo in doubt) [Example 126, 6-(4-Ethyl-3-(hydroxymethyl)-5-oxo-4,5-dihydro-1H-1,2,4-triazol-1-yl)-7-fluoro-4-isopropyl-2-((1S*,2R*)-2-methylcyclopentyl)isoquinolin-1(2H)-one]

More lines, now with the values behind:

SMILES	IC50 (human DHODH) [nM]	IC50 [1] [nM]
CCn1c(CO)nn(-c2cc3c(C(C)C(F)(F)F)nn(-c4ccccc4C)c(=O)c3cc2F)c1=O (racemic) [Example 55, Racemic 6-(4-Ethyl-3-(hydroxymethyl)-5-oxo-4,5-dihydro-1H-1,2,4-triazol-1-yl)-7-fluoro-2-(o-tolyl)-4-(1,1,1-trifluoropropan-2-yl)phthalazin-1(2H)-one]	1.2	0.5
CCn1c(CO)nn(-c2cc3c(C(C)C(F)(F)F)cn(-c4ccccc4C)c(=O)c3cc2F)c1=O (racemic) [Example 88, Racemic-6-(4-Ethyl-3-(hydroxymethyl)-5-oxo-4,5-dihydro-1H-1,2,4-triazol-1-yl)-7-fluoro-2-(o-tolyl)-4-(1,1,1-trifluoropropan-2-yl)isoquinolin-1(2H)-one]	0.52	0.9
CCn1c(CO)nn(-c2cc3c(C(C)C)cn([C@H]4CC[C@@H](OC)C4)c(=O)c3cc2F)c1=O (racemic) [Example 119, Racemic 6-(4-Ethyl-3-(hydroxymethyl)-5-oxo-4,5-dihydro-1H-1,2,4-triazol-1-yl)-7-fluoro-4-isopropyl-2-((cis)-3-methoxycyclopentyl)isoquinolin-1(2H)-one]	10.1	10
CCn1c(CO)nn(-c2cc3c([C@H](C)C(F)(F)F)nn(-c4ccccc4C)c(=O)c3cc2F)c1=O (single isomer, unassigned) [Example 56, (S*)-6-(4-Ethyl-3-(hydroxymethyl)-5-oxo-4,5-dihydro-1H-1,2,4-triazol-1-yl)-7-fluoro-2-(o-tolyl)-4-(1,1,1-trifluoropropan-2-yl)phthalazin-1(2H)-one]	2.31	2
CCn1c(CO)nn(-c2cc3c([C@@H](C)C(F)(F)F)nn(-c4ccccc4C)c(=O)c3cc2F)c1=O (single isomer, unassigned) [Example 57, (R*)-6-(4-Ethyl-3-(hydroxymethyl)-5-oxo-4,5-dihydro-1H-1,2,4-triazol-1-yl)-7-fluoro-2-(o-tolyl)-4-(1,1,1-trifluoropropan-2-yl)phthalazin-1(2H)-one]	1.15	1
C=C(C)c1cn(-c2cccc(F)c2)c(=O)c2ccc(-n3nc(CO)n(CC)c3=O)cc12 [Example 1, 6-(4-Ethyl-3-(hydroxymethyl)-5-oxo-4,5-dihydro-1H-1,2,4-triazol-1-yl)-2-(3-fluorophenyl)-4-(prop-1-en-2-yl)isoquinolin-1(2H)-one]	9.89	6
CCn1c(CO)nn(-c2ccc3c(=O)n(-c4cccc(F)c4)cc(C(C)C)c3c2)c1=O [Example 2, 6-(4-Ethyl-3-(hydroxymethyl)-5-oxo-4,5-dihydro-1H-1,2,4-triazol-1-yl)-2-(3-fluorophenyl)-4-isopropylisoquinolin-1(2H)-one]	75.9	40
CCn1c(CO)nn(-c2ccc3c(=O)n(-c4c(F)cccc4Cl)cc(C(C)C)c3c2)c1=O [Example 3, 2-(2-Chloro-6-fluorophenyl)-6-(4-ethyl-3-(hydroxymethyl)-5-oxo-4,5-dihydro-1H-1,2,4-triazol-1-yl)-4-isopropylisoquinolin-1(2H)-one]	3.46	2
CCn1c(CO)nn(-c2ccc3c(=O)n(-c4cccc(F)c4)cc(-c4ccccc4)c3c2)c1=O [Example 4, 6-(4-Ethyl-3-(hydroxymethyl)-5-oxo-4,5-dihydro-1H-1,2,4-triazol-1-yl)-2-(3-fluorophenyl)-4-phenylisoquinolin-1(2H)-one]	177	100
C=C(C)c1cn(-c2c(F)cccc2Cl)c(=O)c2ccc(-n3nc(CO)n(CC)c3=O)cc12 [Example 5, 2-(2-Chloro-6-fluorophenyl)-6-(4-ethyl-3-(hydroxymethyl)-5-oxo-4,5-dihydro-1H-1,2,4-triazol-1-yl)-4-(prop-1-en-2-yl)isoquinolin-1(2H)-one]	1.29	0.9
C=C(c1cn(-c2c(F)cccc2Cl)c(=O)c2ccc(-n3nc(CO)n(CC)c3=O)cc12)C(F)(F)F [Example 6, 2-(2-Chloro-6-fluorophenyl)-6-(4-ethyl-3-(hydroxymethyl)-5-oxo-4,5-dihydro-1H-1,2,4-triazol-1-yl)-4-(3,3,3-trifluoroprop-1-en-2-yl)isoquinolin-1(2H)-one]	1.94	1
CCn1c(CO)nn(-c2ccc3c(=O)n(-c4c(Cl)cccc4Cl)cc(C4(C)CC4)c3c2)c1=O [Example 7, 2-(2,6-Dichlorophenyl)-6-(4-ethyl-3-(hydroxymethyl)-5-oxo-4,5-dihydro-1H-1,2,4-triazol-1-yl)-4-(1-methylcyclopropyl)isoquinolin-1(2H)-one]	0.965	2
C=C(C)c1cn(-c2c(Cl)cccc2Cl)c(=O)c2ccc(-n3nc(CO)n(CC)c3=O)cc12 [Example 8, 2-(2,6-Dichlorophenyl)-6-(4-ethyl-3-(hydroxymethyl)-5-oxo-4,5-dihydro-1H-1,2,4-triazol-1-yl)-4-(prop-1-en-2-yl)isoquinolin-1(2H)-one]	0.839	0.7
CCn1c(CO)nn(-c2ccc3c(=O)n(-c4c(F)cccc4Cl)cc(C4CC4)c3c2)c1=O [Example 9, 2-(2-Chloro-6-fluorophenyl)-4-cyclopropyl-6-(4-ethyl-3-(hydroxymethyl)-5-oxo-4,5-dihydro-1H-1,2,4-triazol-1-yl)isoquinolin-1(2H)-one]	11.5	5
CCn1c(CO)nn(-c2ccc3c(=O)n(-c4c(F)cccc4Cl)ccc3c2)c1=O [Example 10, 2-(2-Chloro-6-fluorophenyl)-6-(4-ethyl-3-(hydroxymethyl)-5-oxo-4,5-dihydro-1H-1,2,4-triazol-1-yl)isoquinolin-1(2H)-one]	344	100
